In general, inhibition refers to the change of the read-out against control, counted positive when it falls.

The structures appear in SMILES notation. Where two headings read alike, the source gives them in different places.

Test [1] deals with pERK in H2122 xenograft tumors. Description: In vivo target inhibition/PD, H2122 xenograft, pERK. Conditions: Mus musculus, NCI-H2122; for inhibition at 10 mg/kg: 10 mg/kg single dose. The procedure:
To evaluate in vivo target inhibition and anti-tumor efficacy of a compound, Human lung cancer cells, H358 or H2122 are implanted into nude mice xenograft tumor models. Either H358 or H2122 cells (10×10^6 in a 1:1 Matrigel® mix, 0.2 mL total volume) are implanted by subcutaneous injection in hind leg of nude female mice (Harlan Laboratories). A total of 5 mice each group are used for efficacy study, and a total of 3-4 mice each group are used for target engagement and PD study. Treatment is initiated with oral administration (gavage) of a test compound or vehicle (20% Captisol®, 25 mM phosphate, pH 2.0 in 0.2 mL volume when the tumor size reaches approximately […]. Tumor growth and body weight are monitored over time to evaluate efficacy and signs of toxicity. Bidimensional measurements of tumors are performed twice a week and tumor volumes are calculated based on mid-axis length and mid-axis width. Tumor volume data are transformed to a log scale to equalize variance across time and treatment groups. The log volume data are analyzed with a two-way repeated measures analysis of variance by time and treatment using the mixed procedures in SAS software (version 8.2). The correlation model for the repeated measures is spatial power. Treated groups are compared to the control group at each time point. The mixed procedure is also used separately for each treatment group to calculate adjusted means and standard errors at each time point. Both analyses account for the autocorrelation within each animal. The adjusted means and standard errors are plotted for each treatment group versus time.
For in vivo target inhibition and PD analysis, tumors are ground by mortar and pestle on dry ice and tumor fragments are added to 800 μL of lysis buffer containing 1% Triton X100, 25 mM Tris pH 7.5, 150 mM NaCl, 1 mM EDTA, and 1 mM EGTA with Halt protease and phosphatase inhibitor cocktail (Thermo Scientific, cat. no. 1861281) in lysing matrix D tubes (MP Biomedical®, cat. no. 6913-500) with one additional large bead (MP Biomedical® ¼″ ceramic sphere bead cat. no. 6540-412) per tube. Tumor fragments are homogenized in a Thermo Bio101® fast prep (FP120) at setting 4 for […] while cold for a total of 2 times. Lysates are spun at 14,000 rpm for 10 min at 4° C. to clarify. Protein estimation is done on the lysate supernatant using a BioRad Dc® protein assay and lysates are diluted in complete lysis/binding buffer from the Ras GTPase Chemi ELISA Kit® (Active Motif, cat. no. 52097). The active KRas ELISA was performed as follows: Glutathione-coated ELISA wells were incubated with diluted RAF1-GST in complete lysis/binding buffer for 1 hr at 4° C. with gentle agitation. Wells are washed 3 times with wash buffer and 100 μg of lysates are added to each well and incubated at RT for 1 hr with mild agitation. The wells are washed an additional 3 times, then primary antibody, diluted in antibody binding buffer, is added to each well. The plates are incubated for 1 hr. The wells are washed 3 more times before adding HRP-conjugated secondary antibody, diluted in antibody binding buffer, to each well. The plates are incubated at RT for 1 hr. ELISA wells are washed 4 times, chemiluminescent reagents is added and then luminescence is read. For pERK Meso Scale Discovery ELISA, 25 μg of protein containing 0.1% SDS is used; for pMEK Meso Scale Discovery ELISA, 50 μg of protein without SDS is used. Meso Scale Discovery Whole Cell Lysate Kits for pERK and pMEK are provided by Meso Scale Discovery.
After a single dose, the tumor samples are harvested at different time points. The tumor lysates are prepared as described above. The inhibition of pERK, pMEK, and active KRas is measured as described above.

In the next test the test system is D122-96. Description: CellTiterGlo Cell Proliferation Assay, D122-96. It counts as cell-based. Conditions: KRas G12C, Lung (mouse), 96 hr. Here is the method:
A panel of tumor cell lines harboring KRas G12C or other KRas mutations are collected (Table 6). All cell lines are from ATCC or other sources indicated.
Typically cells are cultured in RPMI1640 or Dulbecco's modified Eagle's medium (DMEM, GIBCO) supplemented with 10% FBS (GIBCO, Invitrogen). For 2D culture cells (4×10^3/well) maintained in growth medium described above, are plated onto 96 well tissue culture plates Corning® Cat. 3603) a day before the treatment. For 3D culture 8000 cells/well are seeded onto 96 well ultra-low attachment tissue culture plates (Corning, #3474). The cells are treated compound for 96 hr, and then are analyzed for viability using the CellTiterGlo® Luminescent Cell Viability Assay® (Promega #G7572 for 2D and Promega #G9683 for 3D cultures) according to manufacturer's instructions and an EnVision™ plate reader. Nonlinear regression and sigmoidal dose-response curves are used to calculate the half maximal inhibitory concentration (IC50) with GraphPad Prism 4® software.
On the technique in general: Cellular ATP, detected with luciferase, serves as a proxy for viable cell number.

For the next test, the system named is MIA Paca-2. Description: Combination 4 day growth assay (Cell TiterGlo), MIA Paca-2. It is filed as cell-based. Conditions: Homo sapiens, MIA PaCa-2, 96 h, single treatment, read-out: Absolute IC50. The procedure:
Cell lines for this study are obtained from ATCC and grown under ATCC recommended conditions, except for LXFA-983L, which is obtained from Oncotest/Charles Rivers Laboratories, Wilmington, Mass. and D122-96, which is obtained from L. Eisenbach (Weizman Institute of Science, Rehovot, Israel)—both grown under recommended conditions. […] The proliferation assay is performed as a 4 day growth assay using Cell TiterGlo® as the readout. Briefly, cells are plated in 96-well cell culture plates and allowed to adhere overnight at 37° C. The following day, cells are treated with compounds, either single treatments or combination treatments. First, the testing compounds are serially diluted in DMSO, followed by dilution into media as a 5× concentration with 1% DMSO, and finally added to cells in media to dilute to 1×. The cells are incubated at 37° C. for 4 more days. At the end of the incubation period, Cell TiterGlo® reagent is mixed and added to the wells. After 10 minutes, the luminescence is read by a Perkin Elmer Envision instrument. Absolute IC50 values generated by a 4-parameter logistics model for the single and combination treatments are generated, followed by combination indexes for each combination treatment and cell line. The combination IC50 values are adjusted based on the total concentration of each compound when added together. […] The combination index (CI) measures the degree to which the potency of a combination therapy differs from the expected-if-additive potency and is based on the Loewe definition of additivity.
[formula] Where • CAy and CBy are the concentrations of therapies A and B that produce an effect, y, when given in combination • ICAy and ICBy are the concentrations of A and B that produce an effect, y, when given individually The biological interpretation of the combination index is as follows: synergistic if the combination index <0.5, additive if the combination index is between 0.5 and 2, and antagonistic if the combination index is >2.

Consider `C=CC(=O)N1CCN(c2ncnc3c(F)c(-c4ccc(F)c5sc(N)nc45)c(Cl)cc23)CC1` [Example 1, 1-{4-[7-(2-Amino-7-fluoro-1,3-benzothiazol-4-yl)-6-chloro-8-fluoroquinazolin-4-yl]piperazin-1-yl}prop-2-en-1-one], for which the inhibition at 10 mg/kg is 46.8% in test [1] (H2122 xenograft, 2 hr, read-out: % Inhibition pERK); 47% in test [1] (H2122 xenograft, 4 hr, read-out: % Inhibition pERK); 34.5% in test [1] (H2122 xenograft, 8 hr, read-out: % Inhibition pERK); 7.2% in test [1] (H2122 xenograft, 12 hr, read-out: % Inhibition pERK); -2.8% in test [1] (H2122 xenograft, 24 hr, read-out: % Inhibition pERK); 7 to 47% in test [1] (H2122 xenograft, from 2-12 hr, read-out: pERK inhibition). The inhibition at 30 mg/kg in test [1] (H2122 xenograft, 30 mg/kg single dose, 2 hr, read-out: % Inhibition pERK) is 75.6%; in test [1] (H2122 xenograft, 30 mg/kg single dose, 4 hr, read-out: % Inhibition pERK) it was 75.3%; in test [1] (H2122 xenograft, 30 mg/kg single dose, 8 hr, read-out: % Inhibition pERK), 67.4%; in test [1] (H2122 xenograft, 30 mg/kg single dose, 12 hr, read-out: % Inhibition pERK) it was 48.8%; in test [1] (H2122 xenograft, 30 mg/kg single dose, 24 hr, read-out: % Inhibition pERK) it was 20.4%; in test [1] (read-out: pERK inhibition), 49 to 76%. Besides, the inhibition at 100 mg/kg in test [1] (H2122 xenograft, 100 mg/kg single dose, 4 hr) turned out to be 79.1%. The values for the IC50 in the test with D122-96 (read-out: IC50 (μM) in 2 D cell proliferation), with D122-96 (read-out: IC50 (μM) in 3 D spheroid cell proliferation) and in the test on MIA Paca-2 were 0.126 µM, 0.069 µM and 0.022 µM, respectively.

Source of the values: patent US10968214B2, “KRas G12C inhibitors” (Eli Lilly and Company, priority 2018, dated 2021).
